For seven compounds, inhibition results are on record in US8466089B2, “Pyrazole compounds, process for their production and herbicides containing them” (Ishihara Sangyo Kaisha, Ltd., priority 2008, dated 2013).

Broadly, the inhibition is the drop in the measured response relative to a control, in per cent.

Common to all, as to format: in vivo
Test [1] deals with barnyardgrass (Echinochloa crus-galli L.). Briefly: Test Example 1, foliar treatment in upland pots. Particulars: 20th to 22nd day after application, visual, read-out: Growth inhibition rate (%) Barnyardgrass.
Test [2] deals with corn (Zea mays L.). Put plainly: Test Example 1, foliar treatment in upland pots. Particulars: 20th to 22nd day after application, visual, read-out: Growth inhibition rate (%) Corn. In short, it runs like this:
(§1)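 Visual growth inhibition, 0% = untreated to 100% = complete kill, read on day 20–22 post-spray. Post-emergence foliar application of formulated compound in 500 L/ha water plus 0.1 vol% spreader; leaf stages: corn 2.0–3.3, rice 1.2–2.5, foxtail 1.5–3.0, soybean primary leaf–0.3.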

Test [3] deals with crabgrass (Digitaria sanguinalis L.). Put plainly: Test Example 1, foliar treatment in upland pots. Particulars: 20th to 22nd day after application, visual, read-out: Growth inhibition rate (%) Crabgrass.
The test system of test [4] is green foxtail (Setaria viridis L.). Put plainly: Test Example 1, foliar treatment in upland pots. The note with it: 20th to 22nd day after application, visual, read-out: Growth inhibition rate (%) Green foxtail. In short, it runs like this: as §1
Test [5] deals with redroot pigweed (Amaranthus retroflexus L.). Put plainly: Test Example 1, foliar treatment in upland pots. The note with it: 20th to 22nd day after application, visual, read-out: Growth inhibition rate (%) Redroot pigweed.
Test [6] concerns rice (Oryza sativa L.). Put plainly: Test Example 1, foliar treatment in upland pots. The note with it: 20th to 22nd day after application, visual, read-out: Growth inhibition rate (%) Rice. The method in brief: as §1
Test [7] relates to velvetleaf (Abutilon theophrasti MEDIC.). Briefly: Test Example 1, foliar treatment in upland pots. The note with it: 20th to 22nd day after application, visual, read-out: Growth inhibition rate (%) Velvetleaf.
The test system of test [8] is barnyardgrass (Echinochloa crus-galli L.). Put plainly: Test Example 2, soil application on the day after sowing. The note with it: 21st to 22nd day after application, visual, read-out: Growth inhibition rate (%) Barnyardgrass. The source says: (§2) Upland field soil was put into a 1/170,000 hectare pot, and seeds of various plants (barnyardgrass (Echinochloa crus-galli L.), crabgrass (Digitaria sanquinalis L.), green foxtail (Setaria viridis L.), redroot pigweed (Amaranthus retroflexus L.), prickly sida (Sida spinosa L.), velvetleaf (Abutilon theophrasti MEDIC.), rice (Oryza sativa L.), corn (Zea mays L.), soybean (Glycine max Merr.)) and wheat (Triticum spp.) were sown. On the day after sowing, wettable powders or emulsifiable concentrates of the compounds of the present invention prepared in accordance with a conventional preparation method, were weighed so that the active ingredients became the prescribed amounts, and diluted with water in an amount corresponding to 500 liter per 1 hectare, followed by soil application with a small sprayer.
(§3) On the 21st to 22nd day after the application, the state of growth of the respective plants was visually observed, and the herbicidal effect was evaluated by a growth inhibition rate (%) of from 0 (equivalent to the non-treated area) to 100% (complete kill).

Test [9] has as its system corn (Zea mays L.). The description is as above. The note with it: 21st to 22nd day after application, visual, read-out: Growth inhibition rate (%) Corn.
Text: as §2, §3

Test [10] deals with crabgrass (Digitaria sanquinalis L.). The description is as above. The note with it: 21st to 22nd day after application, visual, read-out: Growth inhibition rate (%) Crabgrass.
Text: as §2, §3

The test system of test [11] is green foxtail (Setaria viridis L.). The description is as above. The note with it: 21st to 22nd day after application, visual, read-out: Growth inhibition rate (%) Green foxtail.
Text: as §2, §3

Test [12] deals with prickly sida (Sida spinosa L.). The test is described as above. The note with it: 21st to 22nd day after application, visual, read-out: Growth inhibition rate (%) Prickly sida.
Text: as §2, §3

The test system of test [13] is redroot pigweed (Amaranthus retroflexus L.). The description is as above. Particulars: 21st to 22nd day after application, visual, read-out: Growth inhibition rate (%) Redroot pigweed.
Text: as §2, §3

For test [14], the system named is rice (Oryza sativa L.). The test is described as above. Particulars: 21st to 22nd day after application, visual, read-out: Growth inhibition rate (%) Rice.
Text: as §2, §3

In test [15] the test system is soybean (Glycine max Merr.). Described as above. Particulars: 21st to 22nd day after application, visual, read-out: Growth inhibition rate (%) Soybean.
Text: as §2, §3

For test [16], the system named is velvetleaf (Abutilon theophrasti MEDIC.). The description is as above. The note with it: 21st to 22nd day after application, visual, read-out: Growth inhibition rate (%) Velvetleaf.
Text: as §2, §3

In the next test the test system is wheat (Triticum spp.). Described as above. The note with it: 21st to 22nd day after application, visual, read-out: Growth inhibition rate (%) Wheat.
Text: as §2, §3

As for `COCCOc1c(S(C)(=O)=O)ccc(C(=O)c2cnn(C(C)C)c2OC(C)OC(=O)OC)c1C` (centres unmarked) [Compound No. 4-1, 1-(1-Isopropyl-4-(3-(2-methoxyethoxy)-2-methyl-4-(methylsulfonyl)benzoyl)-1H-pyrazol-5-yloxy)ethyl methyl carbonate], the inhibition at 7 g/ha in [1] came out at 90%; in the test with corn (Zea mays L.) [2], 0%; in test [3] it was 90%; in [4] it was 95%; in [5], 85%; with rice (Oryza sativa L.) [6], 80%. In [7], the inhibition at 7 g/ha was 100%. The inhibition at 250 g/ha in [8] was 100%; in the test on corn (Zea mays L.) [9], 0%; in test [10], 100%; in test [11] it was 100%; in [12] it was 95%; in test [13], 100%. Moreover, the inhibition at 250 g/ha in the test on rice (Oryza sativa L.) [14] came out at 98%; in [15] it was 0%; in test [16] it was 100%; in the test on wheat (Triticum spp.) it was 10%.

For `CCc1nn(C)c(O)c1C(=O)c1ccc(S(C)(=O)=O)c(OCCOC)c1C` [Compound No. 5-3, (5-Hydroxy-1-methyl-3-ethyl-1H-pyrazol-4-yl)(3-(2-methoxyethoxy)-2-methyl-4-(methylsulfonyl)phenyl)ketone], the inhibition at 7 g/ha in test [1] stood at 90%; in the test on corn (Zea mays L.) [2], 0%; in [3] it was 90%; in test [4], 90%; in test [5], 95%; in the test with rice (Oryza sativa L.) [6], 50%. Moreover, the inhibition at 7 g/ha in test [7] turned out to be 80%. Also, the inhibition at 250 g/ha in test [8] came to 50%; in the test on corn (Zea mays L.) [9], 20%; in test [10], 95%; in test [11], 60%; in test [12], 20%; in test [13] it was 100%. Further, the inhibition at 250 g/ha turned out to be 20% with rice (Oryza sativa L.) [14], 0% in test [15], 30% in [16] and 0% in the test on wheat (Triticum spp.).

Turning to `CCCn1ncc(C(=O)c2ccc(S(C)(=O)=O)c(OCCOC)c2C)c1OC(C)OC(=O)OCC` (centres unmarked) [Compound No. 3-1, Ethyl 1-(1-n-propyl-4-(3-(2-methoxyethoxy)-2-methyl-4-(methylsulfonyl)benzoyl)-1H-pyrazol-5-yloxy)ethyl carbonate], the inhibition at 7 g/ha was determined as 70% in [1]; 0% in the test on corn (Zea mays L.) [2]; 70% in test [3]; 30% in test [4]; 80% in [5]; 0% with rice (Oryza sativa L.) [6]. Also, the inhibition at 7 g/ha in [7] is 60%. The inhibition at 250 g/ha in test [8] was determined as 60%; in the test on corn (Zea mays L.) [9], 0%; in test [10] it was 80%; in test [11] it was 60%; in [12] it was 80%; in [13], 40%. The inhibition at 250 g/ha is 20% in the test on rice (Oryza sativa L.) [14], 0% in test [15], 80% in test [16] and 10% with wheat (Triticum spp.).

As for `CCCn1ncc(C(=O)c2ccc(S(C)(=O)=O)c(OCCOC)c2C)c1O` [Compound No. 7-1, (5-Hydroxy-1-n-propyl-1H-pyrazol-4-yl)(3-(2-methoxyethoxy)-2-methyl-4-(methylsulfonyl)phenyl)ketone], the inhibition at 7 g/ha was found to be 60% in test [1]; 0% with corn (Zea mays L.) [2]; 70% in [3]; 70% in test [4]; 70% in [5]; 10% in the test with rice (Oryza sativa L.) [6]. Besides, the inhibition at 7 g/ha in [7] came out at 75%. The inhibition at 250 g/ha came to 98% in test [8]; 0% in the test on corn (Zea mays L.) [9]; 100% in test [10]; 90% in test [11]; 80% in [12]; 100% in [13]. Further, the inhibition at 250 g/ha in the test with rice (Oryza sativa L.) [14] came out at 98%; in [15], 20%; in [16] it was 95%; in the test on wheat (Triticum spp.) it was 40%.

`Cc1c(C(=O)c2cnn(C)c2O)ccc(S(C)(=O)=O)c1OCCC(C)C` [Compound No. 5-1, (5-Hydroxy-1-methyl-1H-pyrazol-4-yl)(3-(2-isopropylethoxy)-2-methyl-4-(methylsulfonyl)phenyl)ketone]: the inhibition at 7 g/ha in [1] came to 30%; with corn (Zea mays L.) [2], 0%; in test [3], 50%; in test [4], 50%; in test [5], 60%; in the test with rice (Oryza sativa L.) [6], 0%. The inhibition at 7 g/ha in [7] is 10%. Besides, the inhibition at 250 g/ha was determined as 98% in [8]; 10% in the test with corn (Zea mays L.) [9]; 98% in test [10]; 95% in test [11]; 98% in [12]; 100% in test [13]. The inhibition at 250 g/ha in the test on rice (Oryza sativa L.) [14] is 98%; in test [15], 0%; in test [16], 100%; with wheat (Triticum spp.) it was 20%.

As to `CCn1ncc(C(=O)c2ccc(S(C)(=O)=O)c(OCCOC)c2C)c1OC(C)OC(=O)OC` (centres unmarked) [Compound No. 2-1, 1-(1-Ethyl-4-(3-(2-methoxyethoxy)-2-methyl-4-(methylsulfonyl)benzoyl)-1H-pyrazol-5-yloxy)ethyl methyl carbonate], the inhibition at 7 g/ha in [1] turned out to be 95%; in the test with corn (Zea mays L.) [2], 0%; in [3] it was 100%; in test [4] it was 100%; in [5], 90%; in the test with rice (Oryza sativa L.) [6], 70%. For the same compound, the inhibition at 7 g/ha in test [7] worked out at 100%. For the same compound, the inhibition at 250 g/ha in [8] was determined as 95%; in the test on corn (Zea mays L.) [9], 0%; in [10] it was 100%; in [11] it was 100%; in test [12], 90%; in test [13], 100%. The inhibition at 250 g/ha is 98% in the test on rice (Oryza sativa L.) [14], 0% in test [15], 100% in test [16] and 0% in the test on wheat (Triticum spp.).

Turning to `CCOC(=O)OC(C)Oc1c(C(=O)c2ccc(S(C)(=O)=O)c(OCCOC(C)C)c2C)cnn1C` (centres unmarked) [Compound No. 1-5, Ethyl 1-(4-(3-(2-isopropoxyethoxy)-2-methyl-4-(methylsulfonyl)benzoyl)-1-methyl-1H-pyrazol-5-yloxy)ethyl carbonate], the inhibition at 7 g/ha turned out to be 95% in test [1]; 10% in the test with corn (Zea mays L.) [2]; 90% in test [3]; 80% in test [4]; 80% in test [5]; 20% in the test on rice (Oryza sativa L.) [6]. In test [7], the inhibition at 7 g/ha is 80%. The inhibition at 250 g/ha in test [8] is 100%; in the test on corn (Zea mays L.) [9], 10%; in [10], 95%; in test [11], 100%; in test [12], 90%; in [13], 100%. Moreover, the inhibition at 250 g/ha was determined as 80% with rice (Oryza sativa L.) [14], 10% in test [15], 100% in test [16] and 0% with wheat (Triticum spp.).
